Measured values from ChEMBL document CHEMBL2157943, “Role of the side chain stereochemistry in the α-glucosidase inhibitory activity of kotalanol, a potent natural α-glucosidase inhibitor. Part 2” (Bioorg Med Chem, 2012).
Values belong to the molecule of their own block, whether it stands above or below them.

Assays:
[1] = biological target: T1, Sucrase-isomaltase, intestinal (Rattus norvegicus, UniProt P23739); assay: Inhibition of rat small intestinal isomaltase after 30 mins by glucose-oxidase method
T1 sequence (P23739 1-1013 limits assumed): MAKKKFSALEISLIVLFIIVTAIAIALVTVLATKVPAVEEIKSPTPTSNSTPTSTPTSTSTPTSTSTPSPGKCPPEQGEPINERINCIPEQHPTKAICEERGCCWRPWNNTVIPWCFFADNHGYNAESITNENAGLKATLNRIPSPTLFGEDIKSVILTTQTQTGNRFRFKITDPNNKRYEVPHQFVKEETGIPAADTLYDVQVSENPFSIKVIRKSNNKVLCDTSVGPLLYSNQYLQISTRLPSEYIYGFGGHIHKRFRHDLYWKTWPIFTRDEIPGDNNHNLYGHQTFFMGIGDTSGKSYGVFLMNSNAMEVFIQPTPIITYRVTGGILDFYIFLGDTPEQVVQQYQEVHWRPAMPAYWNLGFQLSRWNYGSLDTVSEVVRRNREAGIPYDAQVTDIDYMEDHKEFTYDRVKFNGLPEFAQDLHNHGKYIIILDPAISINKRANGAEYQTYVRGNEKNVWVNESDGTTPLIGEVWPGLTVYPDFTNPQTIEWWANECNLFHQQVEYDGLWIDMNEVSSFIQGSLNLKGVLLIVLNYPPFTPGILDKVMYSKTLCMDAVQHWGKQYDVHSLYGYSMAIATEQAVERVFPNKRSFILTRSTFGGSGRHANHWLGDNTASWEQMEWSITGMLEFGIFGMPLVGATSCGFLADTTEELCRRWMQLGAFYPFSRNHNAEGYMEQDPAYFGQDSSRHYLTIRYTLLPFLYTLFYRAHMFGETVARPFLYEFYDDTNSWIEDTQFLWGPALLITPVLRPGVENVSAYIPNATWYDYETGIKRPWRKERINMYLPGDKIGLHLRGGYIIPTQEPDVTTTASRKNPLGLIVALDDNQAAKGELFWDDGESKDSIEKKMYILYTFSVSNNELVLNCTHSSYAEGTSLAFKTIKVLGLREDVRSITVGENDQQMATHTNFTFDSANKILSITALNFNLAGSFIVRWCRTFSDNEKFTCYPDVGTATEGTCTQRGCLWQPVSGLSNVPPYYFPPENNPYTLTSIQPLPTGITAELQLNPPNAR
T1 sequence (P23739 1014-1841 limits assumed): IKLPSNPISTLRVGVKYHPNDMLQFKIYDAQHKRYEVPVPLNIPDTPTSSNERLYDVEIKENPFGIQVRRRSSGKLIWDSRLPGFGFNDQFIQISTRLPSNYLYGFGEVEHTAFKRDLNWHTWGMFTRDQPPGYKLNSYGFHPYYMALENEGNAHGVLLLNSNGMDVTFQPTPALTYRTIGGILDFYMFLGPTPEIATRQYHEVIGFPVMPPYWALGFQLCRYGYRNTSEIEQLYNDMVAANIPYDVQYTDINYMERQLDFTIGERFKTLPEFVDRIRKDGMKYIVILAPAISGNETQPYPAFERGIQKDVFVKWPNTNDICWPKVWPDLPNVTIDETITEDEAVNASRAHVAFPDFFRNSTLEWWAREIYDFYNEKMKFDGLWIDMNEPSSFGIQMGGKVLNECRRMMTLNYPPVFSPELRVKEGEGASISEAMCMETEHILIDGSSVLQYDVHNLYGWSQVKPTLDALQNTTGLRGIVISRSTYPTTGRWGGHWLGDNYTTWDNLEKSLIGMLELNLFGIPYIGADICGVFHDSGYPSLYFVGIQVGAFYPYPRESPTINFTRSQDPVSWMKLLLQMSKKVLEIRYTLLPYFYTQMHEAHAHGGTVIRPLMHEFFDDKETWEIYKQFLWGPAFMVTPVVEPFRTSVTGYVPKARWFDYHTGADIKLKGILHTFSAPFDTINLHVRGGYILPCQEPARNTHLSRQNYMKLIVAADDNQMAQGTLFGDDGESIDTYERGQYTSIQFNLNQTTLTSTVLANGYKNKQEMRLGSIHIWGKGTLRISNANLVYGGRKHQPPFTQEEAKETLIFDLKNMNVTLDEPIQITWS

[2] = biological target: T1, Sucrase-isomaltase, intestinal; assay: Inhibition of rat small intestinal sucrase after 30 mins by glucose-oxidase method
[3] = biological target: Sucrase-isomaltase, intestinal (Rattus norvegicus) (UniProt P23739); details: 100 ug/ml
Sequence of Sucrase-isomaltase, intestinal (Rattus norvegicus) (P23739 1-1013 limits assumed): as the sequence (P23739 1-1013 limits assumed) above
Sequence of Sucrase-isomaltase, intestinal (Rattus norvegicus) (P23739 1014-1841 limits assumed): as the sequence (P23739 1014-1841 limits assumed) above
Description: Inhibition of rat small intestinal sucrase at 100 ug/ml after 30 mins by glucose-oxidase method

[4] = biological target: Lysosomal alpha-glucosidase (Rattus norvegicus) (UniProt Q6P7A9); details: 100 ug/ml
Sequence of Lysosomal alpha-glucosidase (Rattus norvegicus) (Q6P7A9 whole entry): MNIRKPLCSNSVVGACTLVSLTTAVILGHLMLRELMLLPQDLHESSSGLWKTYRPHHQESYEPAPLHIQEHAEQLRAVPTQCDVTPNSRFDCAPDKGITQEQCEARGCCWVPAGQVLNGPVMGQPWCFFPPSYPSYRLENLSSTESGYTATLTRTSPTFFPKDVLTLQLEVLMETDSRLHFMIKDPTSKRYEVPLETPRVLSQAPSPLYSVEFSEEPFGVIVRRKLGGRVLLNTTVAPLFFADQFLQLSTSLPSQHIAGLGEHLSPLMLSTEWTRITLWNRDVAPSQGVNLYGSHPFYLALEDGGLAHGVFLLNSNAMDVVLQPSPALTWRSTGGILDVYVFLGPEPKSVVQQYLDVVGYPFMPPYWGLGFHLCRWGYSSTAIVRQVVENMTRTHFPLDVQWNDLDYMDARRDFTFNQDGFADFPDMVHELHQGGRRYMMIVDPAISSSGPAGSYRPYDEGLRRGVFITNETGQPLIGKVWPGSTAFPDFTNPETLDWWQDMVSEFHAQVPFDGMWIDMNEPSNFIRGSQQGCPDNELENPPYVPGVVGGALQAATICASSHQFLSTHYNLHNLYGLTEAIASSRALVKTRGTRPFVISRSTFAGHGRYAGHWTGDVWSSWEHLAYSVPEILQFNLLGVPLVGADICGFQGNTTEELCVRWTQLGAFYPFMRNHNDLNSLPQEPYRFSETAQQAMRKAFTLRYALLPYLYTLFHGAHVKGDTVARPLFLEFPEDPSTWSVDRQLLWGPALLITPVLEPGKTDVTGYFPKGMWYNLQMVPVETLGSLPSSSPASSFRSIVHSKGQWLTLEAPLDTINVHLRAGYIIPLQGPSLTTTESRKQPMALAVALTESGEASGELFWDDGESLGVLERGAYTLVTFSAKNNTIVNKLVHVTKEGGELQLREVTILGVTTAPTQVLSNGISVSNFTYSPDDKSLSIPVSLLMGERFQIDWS
Description: Inhibition of rat small intestinal maltase at 100 ug/ml after 30 mins by glucose-oxidase method

SMILES: O=S(=O)([O-])O[C@@H]([C@@H](O)[C@@H](O)[C@H](O)CO)[C@H](O)C[S@+]1C[C@@H](O)[C@H](O)[C@H]1CO
IC50 [1]: 1.6 µM
IC50 [2]: 67 µM

SMILES: O=S(=O)([O-])O[C@H]([C@@H](O)[C@H](O)[C@@H](O)CO)[C@H](O)C[S@+]1C[C@@H](O)[C@H](O)[C@H]1CO
IC50 [1]: 20 µM
IC50 [2]: > 236 µM
inhibition [3]: 28%
inhibition [4]: 32%

SMILES: O=S(=O)([O-])O[C@H]([C@@H](O)[C@@H](O)[C@H](O)CO)[C@H](O)C[S@+]1C[C@@H](O)[C@H](O)[C@H]1CO (mixture of isomers)
IC50 [1]: 16 µM
IC50 [2]: > 236 µM
inhibition [3]: 8%
inhibition [4]: 25%

SMILES: O=S(=O)([O-])O[C@@H]([C@@H](O)[C@@H](O)[C@@H](O)CO)[C@H](O)C[S@+]1C[C@@H](O)[C@H](O)[C@H]1CO
IC50 [1]: 6.5 µM
IC50 [2]: 32 µM

Results, then the molecule that gave them:

IC50 [1]: 21 µM
IC50 [2]: > 236 µM
inhibition [3]: 34%
inhibition [4]: 45%
SMILES: O=S(=O)([O-])O[C@H]([C@@H](O)[C@@H](O)[C@@H](O)CO)[C@H](O)C[S@+]1C[C@@H](O)[C@H](O)[C@H]1CO

IC50 [1]: 11 µM
IC50 [2]: 136 µM
inhibition [4]: 42%
SMILES: O=S(=O)([O-])O[C@@H]([C@@H](O)[C@H](O)[C@@H](O)CO)[C@H](O)C[S@+]1C[C@@H](O)[C@H](O)[C@H]1CO

IC50 [1]: 16 µM
IC50 [2]: 214 µM
inhibition [4]: 44%
SMILES: O=S(=O)([O-])O[C@@H]([C@@H](O)[C@H](O)[C@H](O)CO)[C@H](O)C[S@+]1C[C@@H](O)[C@H](O)[C@H]1CO

IC50 [1]: 58 µM
IC50 [2]: 55 µM
SMILES: O=S(=O)([O-])O[C@H]([C@@H](O)[C@H](O)[C@H](O)CO)[C@H](O)C[S@+]1C[C@@H](O)[C@H](O)[C@H]1CO
